Source: the supplement of paper PMC10599287

Legend:
[1] = compound: CCNC(=O)C#Cc1ccc2c(C(=Nc3ccc(CN(C)C)cc3)c3ccccc3)c(O)[nH]c2c1; assay: absolute IC70 (antiproliferative, propidium iodide); higher = less potent; details: exposure time: 4 days
Protocol: (§1)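 Modified propidium iodide survival/proliferation assay in 294 human tumor cell lines (2D monolayer for solid tumors, suspension for hematologic lines) after 4 days of continuous exposure to 10 concentrations in half-log steps from 0.001 to 30 µM. Absolute IC70 was fitted by four-parameter nonlinear regression of T/C × 100 (%) values; 30 µM is the top dose.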

[2] = compound: O=C(NOCCO)c1ccc2cncn2c1Nc1ccc(I)cc1F [GDC-0623]; assay: as above; details: exposure time: 4 days
Protocol: as §1

Row | Test System | absolute IC70 [1] | absolute IC70 [2]
1 | MEXF_1737 | 0.048 µM | 0.011 µM
2 | MEXF_1792 | 0.462 µM | 0.169 µM
3 | MEXF_1829 | 0.09 µM | 0.019 µM
4 | MEXF_2090 | 0.093 µM | 0.004 µM
5 | MFE-319 | 0.37 µM | 5.17 µM
6 | MIA-PaCa-2 | 0.103 µM | 0.005 µM
7 | MINO | 0.01 µM | > 30 µM
8 | MKN1 | 0.289 µM | > 30 µM
9 | MKN7 | 17.5 µM | > 30 µM
10 | MKN45 | 0.489 µM | 0.079 µM
11 | MM.1R | 0.023 µM | > 30 µM
12 | MM.1S | 0.009 µM | > 30 µM
13 | MOLM-1 | 1.59 µM | > 30 µM
14 | MOLM-6 | 0.009 µM | 0.041 µM
15 | MOLM-13 | 0.008 µM | 0.448 µM
16 | MOLP-2 | 3.65 µM | > 30 µM
17 | MOLT-3 | 0.006 µM | > 30 µM
18 | MOLT-4 | 0.004 µM | > 30 µM
19 | MSTO-211H | 0.494 µM | 1.48 µM
20 | MV4-11 | 0.008 µM | 1.32 µM
21 | NALM-33 | 0.007 µM | > 30 µM
22 | NCI-H69 | 1.34 µM | > 30 µM
23 | NCI-H82 | 2.33 µM | > 30 µM

Row | Test System | absolute IC70 [1] | absolute IC70 [2]
24 | NCI-H322M | 0.391 µM | 0.105 µM
25 | NCI-H345 | 11.8 µM | > 30 µM
26 | NCI-H441 | 1.34 µM | > 30 µM
27 | NCI-H460 | 0.011 µM | > 30 µM
28 | NCI-H522 | 0.102 µM | 30 µM
29 | NCI-H727 | 0.325 µM | 0.023 µM
30 | NCI-H929 | 0.043 µM | 0.01 µM
31 | NCI-H1184 | 0.815 µM | > 30 µM
32 | NCI-H1299 | 1.18 µM | > 30 µM
33 | NCI-H1975 | 0.409 µM | > 30 µM
34 | NCI-H2171 | 0.024 µM | > 30 µM
35 | NOMO-1 | 0.01 µM | > 30 µM
36 | NUGC-4 | 0.329 µM | 0.008 µM
37 | OCI-AML2 | 0.007 µM | < 0.001 µM
38 | OCI-AML3 | 0.006 µM | < 0.001 µM
39 | OCI-LY18 | 0.494 µM | > 30 µM
40 | OCUM-1 | 0.025 µM | 0.011 µM
41 | OE21 | 2.21 µM | > 30 µM
42 | OPM-2 | 0.336 µM | > 30 µM
43 | OVCAR-3 | 26.1 µM | > 30 µM
44 | OVCAR-4 | 4.29 µM | > 30 µM
45 | OVCAR-5 | 0.694 µM | 0.367 µM
46 | OVCAR-8 | 2.8 µM | > 30 µM

Row | Test System | absolute IC70 [1] | absolute IC70 [2]
47 | OVXF_899 | 0.457 µM | 14.7 µM
48 | OVXF_1023 | 14.2 µM | > 30 µM
49 | PA-TU-8902 | 0.913 µM | > 30 µM
50 | PA-TU-8988T | 0.773 µM | > 30 µM
51 | PANC-1 | 5.08 µM | > 30 µM
52 | PAXF_546 | 12.2 µM | > 30 µM
53 | PAXF_1657 | 0.564 µM | 0.26 µM
54 | PAXF_1986 | 0.414 µM | 0.092 µM
55 | PAXF_1998 | 4.62 µM | > 30 µM
56 | PAXF_2035 | 0.855 µM | 17.2 µM
57 | PC-3M | 0.161 µM | > 30 µM
58 | PC-9 | 0.622 µM | > 30 µM
59 | PL-21 | 0.338 µM | 0.365 µM
60 | PXF_698 | 0.301 µM | > 30 µM
61 | PXF_1118 | 1.55 µM | > 30 µM
62 | PXF_1752 | 1.86 µM | > 30 µM
63 | RAJI | 4.79 µM | > 30 µM
64 | RAMOS | 0.507 µM | > 30 µM
65 | RCH-ACV | 0.006 µM | > 30 µM
66 | RD-ES | 0.077 µM | > 30 µM
67 | RH-30 | 0.794 µM | 24.6 µM
68 | RH-41 | 0.606 µM | > 30 µM
69 | RKO | 0.021 µM | 0.125 µM

Row | Test System | absolute IC70 [1] | absolute IC70 [2]
70 | RPMI-2650 | 2.15 µM | > 30 µM
71 | RPMI-8226 | 1.58 µM | > 30 µM
72 | RT112 | 0.042 µM | > 30 µM
73 | RXF_393 | 0.869 µM | 15.1 µM
74 | RXF_486 | 0.816 µM | 0.239 µM
75 | RXF_1183 | 0.949 µM | 0.102 µM
76 | RXF_1220 | 4.72 µM | > 30 µM
77 | RXF_1781 | 0.309 µM | 7.38 µM
78 | RXF_2282 | 0.026 µM | > 30 µM
79 | RXF_2516 | 0.164 µM | 8.07 µM
80 | SCLC-21H | 0.031 µM | > 30 µM
81 | SD1 | 0.004 µM | > 30 µM
82 | SF268 | 1.33 µM | > 30 µM
83 | SF295 | 8.84 µM | > 30 µM
84 | SISO | 0.715 µM | > 30 µM
85 | SK-BR-3 | 4.07 µM | > 30 µM
86 | SK-GT-2 | 2.8 µM | > 30 µM
87 | SK-LMS-1 | 0.937 µM | 0.368 µM
88 | SK-MES-1 | 0.617 µM | 0.235 µM
89 | SK-OV-3 | 13.4 µM | > 30 µM
90 | SK-UT-1B | 1.4 µM | 5.79 µM
91 | SN12C | 0.665 µM | 2.96 µM
92 | SNB-75 | 1.1 µM | 2.68 µM

Row | Test System | absolute IC70 [1] | absolute IC70 [2]
93 | SNU-1 | 3 µM | > 30 µM
94 | SNU-16 | 15.4 µM | > 30 µM
95 | SNU-423 | 1.32 µM | > 30 µM
96 | SNU-449 | 3.2 µM | 2.22 µM
97 | SNU-475 | 3.55 µM | > 30 µM
98 | SNU-601 | 3 µM | > 30 µM
99 | SNU-620 | 0.225 µM | > 30 µM
100 | SNU-739 | 1.38 µM | > 30 µM
101 | SNU-878 | 9.32 µM | 18.8 µM
102 | SNU-899 | 0.515 µM | 0.035 µM
103 | SR | 0.013 µM | > 30 µM
104 | SU-DHL-1 | 0.406 µM | > 30 µM
105 | SU-DHL-4 | 0.22 µM | > 30 µM
106 | SW403 | 0.841 µM | 0.00771 µM
107 | SW480 | 0.101 µM | 0.0239 µM
108 | SW579 | 0.279 µM | 0.204 µM
109 | SW620 | 0.069 µM | 0.01 µM
110 | SW948 | 3 µM | > 30 µM
111 | SW1463 | 0.323 µM | 0.0143 µM
112 | SW1710 | 0.525 µM | 3.74 µM
113 | SXFO_678 | 0.087 µM | > 30 µM
114 | SXFS_1301 | 3.85 µM | > 30 µM
115 | Saos-2 | 0.593 µM | > 30 µM

Row | Test System | absolute IC70 [1] | absolute IC70 [2]
116 | SiHa | 4.8 µM | > 30 µM
117 | T24 | 0.353 µM | 0.046 µM
118 | T47D | 6.84 µM | > 30 µM
119 | TE671 | 1.36 µM | > 30 µM
120 | TFK-1 | 3.45 µM | > 30 µM
121 | THP-1 | 0.084 µM | 0.047 µM
122 | TK10 | 0.873 µM | > 30 µM
123 | TT2609-C02 | 0.018 µM | 0.012 µM
124 | U-2-OS | 0.162 µM | 0.53 µM
125 | U-251MG | 1.18 µM | 0.783 µM
126 | U-266 | 1.7 µM | > 30 µM
127 | U-937 | 0.348 µM | > 30 µM
128 | U-2197 | 2.77 µM | > 30 µM
129 | UO-31 | 0.527 µM | 1.62 µM
130 | UOC-M1 | 0.012 µM | > 30 µM
131 | UXF_1138 | 0.006 µM | > 30 µM
132 | VCAP | 5.03 µM | > 30 µM
133 | WSU-DLCL2 | 0.892 µM | > 30 µM
